Data set [1] deals with Influenza A virus. Type of data set: functional, organism-based. The settings on record: Influenza A virus (A/X-31(H3N2)); MDCK; 25 uM.
The nature of data set [2]: Cytotoxicity against MDCK cells assessed as change in cell morphology after 3 days by microscopic analysis. The data set is classed as cell-based, Canis lupus familiaris. The settings on record: dog.
Data set [3] deals with Influenza A virus. Type of data set: functional, organism-based. Particulars: Influenza A virus (A/X-31(H3N2)); MDCK; 25 uM. The source holds these as a separate data set.
In data set [4] the test system is Influenza A virus. The data set is classed as functional, organism-based. The settings on record: Influenza A virus (A/X-31(H3N2)); MDCK; 12 to 50 uM.
Data set [5] concerns Influenza A virus. As to the kind of experiment: microbe, parasite or virus in culture. The settings on record: MDCK, 72 h.
Description: Antiviral activity against Influenza virus A/X-31 infected in MDCK cells assessed as reduction in viral replication at 3 days post infection by formazan-based MTS assay
For data set [6], the system named is unidentified influenza virus. As to the kind of experiment: Antiviral activity against Influenza virus infected in human A549 cells. The data set is classed as functional.
The subject of data set [7] is Influenza A virus. Type of data set: functional, organism-based. Particulars: Influenza A virus (A/X-31(H3N2)); MDCK; 250 uM.
Data set [8] concerns Influenza A virus. Type of data set: functional, organism-based. The settings on record: Influenza A virus (A/X-31(H3N2)); MDCK; 250 uM. The source holds these as a separate data set.
A short description of data set [9]: Cytotoxicity against HGPRT deficient 6-thioguanine-resistant MDCK cells assessed as change in cell morphology after 3 days by microscopic analysis. The data set is classed as cell-based, Canis lupus familiaris. Particulars: dog.
Data set [10] concerns MDCK. The data set is described as follows: Prodrug activation in MDCK cells assessed as T-1105-RMP formation at 714 uM after 19 hrs by RP-HPLC-UV analysis. Type of data set: cell-based, Canis lupus familiaris. The settings on record: dog.
Data set [11] has as its system Influenza A virus. Type of data set: functional, organism-based. Particulars: Influenza A virus (A/X-31(H3N2)); MDCK; 25 uM. The source holds these as a separate data set.
For data set [12], the system named is MDCK. Type of data set: cell-based, Canis lupus familiaris. The settings on record: dog, 714 µM.
Data set [13] has as its system Influenza A virus. Type of data set: functional, organism-based. Particulars: Influenza A virus (A/X-31(H3N2)); MDCK; 25 uM. This is another data set of the same source.
Data set [14] has as its system Influenza B virus. The data set is described as follows: microbe, parasite or virus in culture. The settings on record: Ned/537/05, MDCK, 72 h.
Description: Antiviral activity against Influenza virus B/Ned/537/05 infected in MDCK cells assessed as reduction in viral replication at 3 days post infection by microscopic analysis
For data set [15], the system named is Influenza A virus. Type of data set: functional, organism-based. Particulars: Influenza A virus (A/X-31(H3N2)); MDCK; 12 to 50 uM. The source holds these as a separate data set.
Data set [16] deals with MDCK. The data set is described as follows: Prodrug activation in MDCK cells assessed as parent compound remaining at 714 uM after 19 hrs by RP-HPLC-UV analysis. Type of data set: cell-based, Canis lupus familiaris. Particulars: dog.
Data set [17] has as its system Influenza B virus. The data set is described as follows: microbe, parasite or virus in culture. The settings on record: Ned/537/05, MDCK, 72 h. The source holds these as a separate data set.
Description: Antiviral activity against Influenza virus B/Ned/537/05 infected in MDCK cells assessed as reduction in viral replication at 3 days post infection by formazan-based MTS assay
For data set [18], the system named is Influenza A virus. The data set is described as follows: microbe, parasite or virus in culture. Particulars: MDCK, 72 h. The source holds these as a separate data set.
Description: Antiviral activity against Influenza virus A/X-31 infected in MDCK cells assessed as reduction in viral replication at 3 days post infection by microscopic analysis
The nature of data set [19]: Cytotoxicity against MDCK cells assessed as reduction in cell viability after 3 days by formazan-based MTS assay. Set-up: species or system Canis lupus familiaris. The settings on record: dog. On the technique in general: Tetrazolium dyes change colour on reduction, which living cells bring about.
Data set [20] concerns MDCK. As to the kind of experiment: Prodrug activation in MDCK cells assessed as T-705-RMP formation at 714 uM after 25 hrs by RP-HPLC-UV analysis. The data set is classed as cell-based, Canis lupus familiaris. Particulars: dog.
In data set [21] the test system is MDCK. The data set is classed as cell-based, Canis lupus familiaris. The settings on record: dog, 714 µM. This is another data set of the same source.
Data set [22] relates to MDCK. As to the kind of experiment: Prodrug activation in MDCK cells assessed as parent compound remaining at 714 uM after 25 hrs by RP-HPLC-UV analysis. The data set is classed as cell-based, Canis lupus familiaris. The settings on record: dog.
The nature of data set [23]: Drug metabolism in MDCK cells assessed as T-1105-RDP formation at 465 uM during 15 hrs by RP-HPLC-UV analysis. Type of data set: ADME, cell-based, Canis lupus familiaris. The settings on record: dog.
Data set [24] in a line: Drug metabolism in MDCK cells assessed as T-1105-RTP formation at 465 uM during 15 hrs by RP-HPLC-UV analysis. Type of data set: ADME, cell-based, Canis lupus familiaris. The settings on record: dog.
Data set [25] addresses Membrane-associated guanylate kinase, WW and PDZ domain-containing protein 1 (Homo sapiens) (UniProt Q96QZ7). The data set is described as follows: Inhibition of human recombinant guanylate kinase 1 mediated […] conversion at 25 to 400 uM preincubated for 10 mins followed by enzyme addition measured up to 60 mins by UV absorbance method.
Data set [26] is described as follows: Prodrug activation in phosphate buffer at pH 7.3 assessed as half life for T-1105-RMP formation up to 332 hrs by RP-HPLC-UV analysis. Type of data set: physicochemical. Particulars: pH 7.3, 332 h.
Data set [27] deals with T1, Liver carboxylesterase (Sus scrofa, UniProt Q29550).
T1 sequence (Q29550 whole entry): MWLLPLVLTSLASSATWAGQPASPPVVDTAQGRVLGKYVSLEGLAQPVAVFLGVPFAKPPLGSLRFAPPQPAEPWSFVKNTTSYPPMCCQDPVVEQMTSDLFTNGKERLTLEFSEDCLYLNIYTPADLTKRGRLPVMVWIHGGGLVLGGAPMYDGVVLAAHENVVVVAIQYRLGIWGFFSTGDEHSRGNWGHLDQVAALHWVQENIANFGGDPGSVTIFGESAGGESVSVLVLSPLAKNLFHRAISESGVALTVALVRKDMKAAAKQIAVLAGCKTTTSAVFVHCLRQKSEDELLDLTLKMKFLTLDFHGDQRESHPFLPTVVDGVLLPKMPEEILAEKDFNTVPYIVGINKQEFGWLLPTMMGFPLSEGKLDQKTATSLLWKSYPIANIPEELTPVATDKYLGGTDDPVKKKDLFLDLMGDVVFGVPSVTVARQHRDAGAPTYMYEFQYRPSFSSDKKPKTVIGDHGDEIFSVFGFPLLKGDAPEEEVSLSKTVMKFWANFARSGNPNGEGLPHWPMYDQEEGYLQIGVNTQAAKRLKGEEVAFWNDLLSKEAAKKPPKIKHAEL
The data set is described as follows: Prodrug activation assessed as pig liver esterase mediated metabolite formation after 30 hrs by RP-HPLC chromatogram analysis. Type of data set: ADME. Particulars: isolated protein.

For data set [28], the target named is T1, Liver carboxylesterase. The data set is described as follows: Drug metabolism assessed as pig liver esterase mediated 4-((((((2R,3S,4R,5R)-5-(3-carbamoyl-5-fluoro-2-oxopyrazin-1(2H)-yl)-3,4-dihydroxytetrahydrofuran-2-yl)methoxy)(hydroxy)phosphoryloxy)(hydroxy)[…])methyl)phenyl pentanoate formation at 450 uM after 2 hrs by RP-HPLC chromatogram analysis. The data set is classed as ADME. Particulars: isolated protein.

The nature of data set [29]: Prodrug activation in phosphate buffer at pH 7.3 assessed as metabolite formation after 30 hrs by RP-HPLC chromatogram analysis. Type of data set: physicochemical. The settings on record: pH 7.3, 30 h.
Data set [30] in a line: Stability of the compound in phosphate buffer at pH 7.3 after 30 hrs by RP-HPLC chromatogram analysis. The data set is classed as physicochemical. The settings on record: pH 7.3, 30 h.

Activity calls are given as the source filed them. The rule behind the calls is not given here.

Chain of Membrane-associated guanylate kinase, WW and PDZ domain-containing protein 1 (Homo sapiens) (Q96QZ7 whole entry, the tested form may be a part): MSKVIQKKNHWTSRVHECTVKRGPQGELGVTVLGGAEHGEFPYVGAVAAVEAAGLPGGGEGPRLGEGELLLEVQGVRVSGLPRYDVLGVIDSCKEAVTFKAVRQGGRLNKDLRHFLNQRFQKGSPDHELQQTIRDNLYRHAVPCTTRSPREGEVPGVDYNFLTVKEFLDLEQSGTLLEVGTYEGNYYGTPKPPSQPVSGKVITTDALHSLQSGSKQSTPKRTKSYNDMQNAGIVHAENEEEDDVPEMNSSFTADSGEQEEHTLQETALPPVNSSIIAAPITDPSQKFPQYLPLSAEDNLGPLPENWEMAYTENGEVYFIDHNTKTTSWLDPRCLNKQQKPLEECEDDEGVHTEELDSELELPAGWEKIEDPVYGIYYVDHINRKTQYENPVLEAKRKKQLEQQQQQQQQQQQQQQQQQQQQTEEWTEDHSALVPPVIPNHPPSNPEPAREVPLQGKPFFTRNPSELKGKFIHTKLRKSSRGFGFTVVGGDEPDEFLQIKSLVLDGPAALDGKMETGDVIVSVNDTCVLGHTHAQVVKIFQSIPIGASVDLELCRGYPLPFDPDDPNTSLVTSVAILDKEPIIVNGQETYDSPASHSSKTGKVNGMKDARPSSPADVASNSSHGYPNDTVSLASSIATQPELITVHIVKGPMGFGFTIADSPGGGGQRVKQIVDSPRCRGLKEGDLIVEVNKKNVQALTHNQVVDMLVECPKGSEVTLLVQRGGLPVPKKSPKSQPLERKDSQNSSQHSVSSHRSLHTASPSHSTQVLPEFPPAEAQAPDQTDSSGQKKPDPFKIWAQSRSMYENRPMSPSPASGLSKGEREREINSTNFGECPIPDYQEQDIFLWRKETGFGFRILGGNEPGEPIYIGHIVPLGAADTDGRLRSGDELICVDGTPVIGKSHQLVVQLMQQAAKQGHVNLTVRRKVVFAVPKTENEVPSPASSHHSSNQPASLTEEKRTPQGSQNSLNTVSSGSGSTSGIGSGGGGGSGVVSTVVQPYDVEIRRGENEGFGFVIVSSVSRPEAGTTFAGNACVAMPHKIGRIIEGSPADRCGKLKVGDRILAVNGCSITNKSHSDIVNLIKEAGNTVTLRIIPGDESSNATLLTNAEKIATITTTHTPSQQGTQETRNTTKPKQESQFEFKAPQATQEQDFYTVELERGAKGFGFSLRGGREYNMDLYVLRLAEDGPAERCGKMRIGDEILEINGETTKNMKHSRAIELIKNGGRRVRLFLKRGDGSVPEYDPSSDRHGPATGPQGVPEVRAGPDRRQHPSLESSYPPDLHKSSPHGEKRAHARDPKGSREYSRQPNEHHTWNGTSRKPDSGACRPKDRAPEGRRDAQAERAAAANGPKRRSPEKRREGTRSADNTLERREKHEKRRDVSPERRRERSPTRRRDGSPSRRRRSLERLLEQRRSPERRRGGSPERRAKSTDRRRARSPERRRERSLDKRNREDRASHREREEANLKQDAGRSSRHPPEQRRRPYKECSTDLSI

In general, EC50 refers to the concentration needed to bring the measured effect to its halfway point. Low values mean a more potent agent, high ones a less potent agent. The EC99 is the concentration at which the effect reaches the 99% level. As a reminder, the CC50 is the concentration at which the toxic effect on the cells reaches its halfway point. As to `NC(=O)c1nccnc1O`, the inhibition entry in [1] and in data set [13] was “inactive” each time. Also, the MCC at 72 h in data set [2] and in data set [9] was greater than 250 µM throughout. Further, the inhibition result in data set [3], in data set [4], in [7], in [8], in [11] and in [15] was “Active” throughout. Besides, the EC50 in [5] amounted to 5.4 µM; in data set [14], 2.8 µM; in data set [17], 2.1 µM; in data set [18], 6.4 µM. Also, in data set [6], the 99% effect level (EC99) was put at 134 µM. The Drug metabolism entry in data set [10] was “Metabolite_Detected”; in data set [12] it was “Metabolite_Notdetected”. In data set [16], the Stability is listed as 10%. Besides, in data set [19], the CC50 at 72 h was greater than 250 µM.

For the compound `NC(=O)c1nc(F)c[nH]c1=O`, the MCC at 72 h in [2] and in data set [9] was greater than 250 µM in each case. For the same compound, the Drug metabolism result in data set [20] is “Metabolite_Detected”; in [21] it was “Metabolite_Notdetected”. In addition, in data set [22], the Stability is 65%. Further, the CC50 at 72 h in data set [19] was greater than 250 µM.

Take `NC(=O)c1nccn([C@@H]2O[C@H](COP(=O)(O)O)[C@@H](O)[C@H]2O)c1=O`: the Drug metabolism entry in data set [23] and in data set [24] was “Metabolite_Notdetected” in each case. The inhibition result in [25] was “inactive”.

In the case of `CC(C)(C)c1cc2c(c(C(C)(C)C)c1)OP(=O)(OC[C@H]1O[C@@H](n3ccnc(C(N)=O)c3=O)[C@H](O)[C@@H]1O)OC2` (stereo not given in full), the t1/2 in data set [26] is 16 h.

For `CCCCCCCCCCCCCCC(=O)Oc1ccc(COP(=O)(OCc2ccc(OC(=O)CCCC)cc2)OP(=O)(O)OC[C@H]2O[C@@H](n3cc(F)nc(C(N)=O)c3=O)[C@H](O)[C@@H]2O)cc1.CCN(CC)CC` (stereo not given in full), the values for the MCC at 72 h in data set [2] and in [9] were 21 µM and 16 µM, respectively. Besides, the half-maximal effective concentration (EC50) in data set [5] came out at 10 µM; in data set [14], 7.2 µM; in [17], 3.5 µM; in data set [18], 5.4 µM. For the same compound, the Drug metabolism result was “Metabolite_Notdetected” in data set [27], “Metabolite_Detected” in [28] and “Metabolite_Notdetected” in [29]. In addition, in data set [30], the Stability entry is “Unstable”. For the same compound, the CC50 at 72 h in [19] came to 35 µM.

(Values after ChEMBL document CHEMBL4130627, “Prodrugs of the Phosphoribosylated Forms of Hydroxypyrazinecarboxamide Pseudobase T-705 and Its De-Fluoro Analogue T-1105 as Potent Influenza Virus Inhibitors” (J Med Chem, 2018).)
